Some results are limits rather than exact numbers.

Type in all cases: cell-based
One assay relates to K562 cells. The experiment in a line: Cell growth inhibitory activity assay (CellTiter-Glo), K562 cells. The following applies: Homo sapiens, 72 h, CTG cell viability. The method, boiled down:
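K562 cells in logarithmic growth were counted, diluted and plated in 96-well plates, with medium-only blanks and a separate T0 plate read by CTG the following day. After overnight incubation, graded compound concentrations were added for 72 h, with 0.5% DMSO wells as growth controls. Luminescence was read on a Biotek cytation3.0, and IC50 came from nonlinear fitting in GraphPad Prism 7.0.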

A further assay deals with T1, Ba/F3 BCR-ABL1 WT (Homo sapiens, UniProt P00519+P11274).
T1 construct: BCR (N-terminal fusion partner of the oncoprotein); expressed in transfected cells; host or cells: Ba/F3 (lentiviral transduction, monoclonal line)
The experiment in a line: Cell growth inhibitory activity assay (CellTiter-Glo), Ba/F3 BCR-ABL1 WT cells. The settings on record: 72 h, CTG cell viability. The method, boiled down: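 Ba/F3 lines stably transduced by lentivirus with WT or mutant BCR-ABL1, alongside untransduced parental Ba/F3, were seeded and incubated overnight at 37 °C, 5% CO2, then exposed to serially diluted compound for 72 h. Viability was read as ATP by CellTiter-Glo luminescence against a day-of-dosing T0 plate; IC50 from four-parameter nonlinear fit.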
Background: ATP-based viability assays read luminescence as a measure of living cells.

The next assay addresses T2, Ba/F3 BCR-ABL1 T315I (Homo sapiens, UniProt P00519+P11274, T315I).
T2 construct: BCR (N-terminal fusion partner of the oncoprotein); expressed in transfected cells; host or cells: Ba/F3 (lentiviral transduction, monoclonal line)
The experiment in a line: Cell growth inhibitory activity assay (CellTiter-Glo), Ba/F3 BCR-ABL1 T315I cells. The following applies: 72 h, CTG cell viability. The method, boiled down: (§1)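 IC50 values come from nonlinear fitting of % inhibition against log concentration, with viability taken as ATP content by CellTiter-Glo. Parental Ba/F3 or Ba/F3 monoclonal lines expressing lentivirally introduced mutant BCR-ABL1 were dosed for 72 h; controls included 0.5% DMSO wells and a T0 plate.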

A further assay deals with Ba/F3 parental cells. The experiment in a line: Cell growth inhibitory activity assay (CellTiter-Glo), Ba/F3 parental cells. The settings on record: Mus musculus, BaF3, 72 h, CTG cell viability, read-out: IC50 Ba/F3 BCR-ABL1 Parental. The method, boiled down:
as §1

Turning to `C[C@@H]1COCc2nc3cc(C(=O)Nc4ccc(OC(F)(F)Cl)cc4)cc(-c4cnc5c(c4)-c4nn(CCOC(C)(C)C)cc4C5)c3n21` [T-56-A, (R)-6-(2-(2-(tert-butoxy)ethyl)-2,4-dihydropyrazolo[3',4':3,4]cyclopenta[1,2-b]pyridin-7-yl)-N-(4-(chlorodifluoromethoxy)phenyl)-4-methyl-3,4-dihydro-1H-benzo[4,5]imidazo[2,1-c][1,4]oxazine-8-carboxamide], the IC50 in the assay with K562 cells was 5 to 50 nM; at Ba/F3 BCR-ABL1 WT, 50 to 1000 nM; on Ba/F3 BCR-ABL1 T315I, more than 1000 nM; in the assay on Ba/F3 parental cells, more than 1000 nM.

Take `C[C@@H]1COCc2nc3cc(C(=O)Nc4ccc(OC(F)(F)Cl)cc4)cc(-c4cnc5c(c4)-c4c(cnn4CCOC(C)(C)C)C5)c3n21` [T-56-B, (R)-6-(1-(2-(tert-butoxy)ethyl)-1,4-dihydropyrazolo[3',4':3,4]cyclopenta[1,2-b]pyridin-7-yl)-N-(4-(chlorodifluoromethoxy)phenyl)-4-methyl-3,4-dihydro-1H-benzo[4,5]imidazo[2,1-c][1,4]oxazine-8-carboxamide]: the IC50 was not above 5 nM in the assay with K562 cells, not above 5 nM on Ba/F3 BCR-ABL1 WT, more than 1000 nM against Ba/F3 BCR-ABL1 T315I and more than 1000 nM in the assay with Ba/F3 parental cells.

As to `C[C@@H]1COCc2nc3cc(C(=O)Nc4ccc(OC(F)(F)Cl)cc4)cc(-c4cnc5c(c4)C(=O)CC5)c3n21` [T-58, (R)-N-(4-(chlorodifluoromethoxy)phenyl)-4-methyl-6-(5-oxo-6,7-dihydro-5H-cyclopenta[b]pyridin-3-yl)-3,4-dihydro-1H-benzo[4,5]imidazo[2,1-c][1,4]oxazine-8-carboxamide], the IC50 in the assay on K562 cells was not above 5 nM; against Ba/F3 BCR-ABL1 WT it was not above 5 nM; on Ba/F3 BCR-ABL1 T315I, 5 to 50 nM; with Ba/F3 parental cells it was more than 1000 nM.

On to `C[C@@H]1COCc2nc3cc(C(=O)Nc4ccc(OC(F)(F)Cl)cc4)cc(-c4cnc5c(c4)C(=O)/C(=C\N(C)C)C5)c3n21` [T-59, (R,Z)-N-(4-(chlorodifluoromethoxy)phenyl)-6-(6-((dimethylamino)methylene)-5-oxo-6,7-dihydro-5H-cyclopenta[b]pyridin-3-yl)-4-methyl-3,4-dihydro-1H-benzo[4,5]imidazo[2,1-c][1,4]oxazine-8-carboxamide], for which the IC50 with K562 cells was not above 5 nM; against Ba/F3 BCR-ABL1 WT, not above 5 nM; against Ba/F3 BCR-ABL1 T315I it was 50 to 1000 nM; in the assay on Ba/F3 parental cells, more than 1000 nM.

Regarding `C[C@@H]1COCc2nc3cc(C(=O)Nc4ccc(OC(F)(F)Cl)cc4)cc(-c4cnc5c(c4)-c4n[nH]cc4C5=O)c3n21` [T-60, (R)-N-(4-(chlorodifluoromethoxy)phenyl)-4-methyl-6-(4-oxo-2,4-dihydropyrazolo[3',4':3,4]cyclopenta[1,2-b]pyridin-7-yl)-3,4-dihydro-1H-benzo[4,5]imidazo[2,1-c][1,4]oxazine-8-carboxamide], the IC50 in the assay with K562 cells is not above 5 nM; against Ba/F3 BCR-ABL1 WT, not above 5 nM; on Ba/F3 BCR-ABL1 T315I it was more than 1000 nM; in the assay with Ba/F3 parental cells, more than 1000 nM.

In the case of `C[C@@H]1COCc2nc3cc(C(=O)Nc4ccc(OC(F)(F)Cl)cc4)cc(-c4ccc5c(c4)C(=O)N(C)C5)c3n21` [T-61, (R)-N-(4-(chlorodifluoromethoxy)phenyl)-4-methyl-6-(2-methyl-3-oxoisoindolin-5-yl)-3,4-dihydro-1H-benzo[4,5]imidazo[2,1-c][1,4]oxazine-8-carboxamide], the IC50 with K562 cells was not above 5 nM; on Ba/F3 BCR-ABL1 WT, not above 5 nM; at Ba/F3 BCR-ABL1 T315I it was 5 to 50 nM; in the assay on Ba/F3 parental cells it was more than 1000 nM.

As for `C[C@@H]1COCc2nc3cc(C(=O)Nc4ccc(OC(F)(F)Cl)cc4)cc(-c4ccc5c(c4)C(=O)N(C)C5=O)c3n21` [T-62, (R)-N-(4-(chlorodifluoromethoxy)phenyl)-4-methyl-6-(2-methyl-1,3-dioxoisoindolin-5-yl)-3,4-dihydro-1H-benzo[4,5]imidazo[2,1-c][1,4]oxazine-8-carboxamide], the IC50 with K562 cells was not above 5 nM; against Ba/F3 BCR-ABL1 WT, 5 to 50 nM; against Ba/F3 BCR-ABL1 T315I it was 50 to 1000 nM; with Ba/F3 parental cells, more than 1000 nM.

For `C[C@@H]1COCc2nc3cc(C(=O)Nc4ccc(OC(F)(F)Cl)cc4)cc(-c4cnc5c(c4)-c4nn(-c6cccnc6)cc4C5)c3n21` [T-63], the IC50 was not above 5 nM in the assay on K562 cells, not above 5 nM against Ba/F3 BCR-ABL1 WT, more than 1000 nM at Ba/F3 BCR-ABL1 T315I and more than 1000 nM in the assay on Ba/F3 parental cells.

Turning to `C[C@@H]1COCc2nc3cc(C(=O)Nc4ccc(OC(F)(F)Cl)cc4)cc(-c4cnc5c(c4)-c4nn(-c6ccncc6)cc4C5)c3n21` [T-64], the IC50 with K562 cells was not above 5 nM; on Ba/F3 BCR-ABL1 WT it was not above 5 nM; on Ba/F3 BCR-ABL1 T315I it was more than 1000 nM; in the assay with Ba/F3 parental cells, more than 1000 nM.

`COc1nc(OC)nc(-n2cc3c(n2)-c2cc(-c4cc(C(=O)Nc5ccc(OC(F)(F)Cl)cc5)cc5nc6n(c45)[C@H](C)COC6)cnc2C3)n1` [T-70, (R)-N-(4-(chlorodifluoromethoxy)phenyl)-6-(2-(4,6-dimethoxy-1,3,5-triazin-2-yl)-2,4-dihydropyrazolo[3',4':3,4]cyclopenta[1,2-b]pyridin-7-yl)-4-methyl-3,4-dihydro-1H-benzo[4,5]imidazo[2,1-c][1,4]oxazine-8-carboxamide]: the IC50 with K562 cells was not above 5 nM; against Ba/F3 BCR-ABL1 WT, not above 5 nM; against Ba/F3 BCR-ABL1 T315I it was 5 to 50 nM; with Ba/F3 parental cells, more than 1000 nM.

`C[C@@H]1COCc2nc3cc(C(=O)Nc4ccc(OC(F)(F)Cl)cc4)cc(-c4cnc5c(c4)-c4nn(-c6nccc(C(F)(F)F)n6)cc4C5)c3n21` [T-72, (R)-N-(4-(chlorodifluoromethoxy)phenyl)-4-methyl-6-(2-(4-(trifluoromethyl)pyrimidin-2-yl)-2,4-dihydropyrazolo[3',4':3,4]cyclopenta[1,2-b]pyridin-7-yl)-3,4-dihydro-1H-benzo[4,5]imidazo[2,1-c][1,4]oxazine-8-carboxamide]: the IC50 with K562 cells was not above 5 nM; at Ba/F3 BCR-ABL1 WT it was not above 5 nM; at Ba/F3 BCR-ABL1 T315I, not above 5 nM; in the assay with Ba/F3 parental cells, more than 1000 nM.

Turning to `Cc1cnc(-n2cc3c(n2)-c2cc(-c4cc(C(=O)Nc5ccc(OC(F)(F)Cl)cc5)cc5nc6n(c45)[C@H](C)COC6)cnc2C3)nc1` [T-74, (R)-N-(4-(chlorodifluoromethoxy)phenyl)-4-methyl-6-(2-(5-methylpyrimidin-2-yl)-2,4-dihydropyrazolo[3',4':3,4]cyclopenta[1,2-b]pyridin-7-yl)-3,4-dihydro-1H-benzo[4,5]imidazo[2,1-c][1,4]oxazine-8-carboxamide], the IC50 in the assay on K562 cells was not above 5 nM; against Ba/F3 BCR-ABL1 WT, not above 5 nM; against Ba/F3 BCR-ABL1 T315I, not above 5 nM; in the assay with Ba/F3 parental cells it was more than 1000 nM.

With `Cc1cc(C(F)(F)F)nc(-n2cc3c(n2)-c2cc(-c4cc(C(=O)Nc5ccc(OC(F)(F)Cl)cc5)cc5nc6n(c45)[C@H](C)COC6)cnc2C3)n1` [T-75, (R)-N-(4-(chlorodifluoromethoxy)phenyl)-4-methyl-6-(2-(4-methyl-6-(trifluoromethyl)pyrimidin-2-yl)-2,4-dihydropyrazolo[3',4':3,4]cyclopenta[1,2-b]pyridin-7-yl)-3,4-dihydro-1H-benzo[4,5]imidazo[2,1-c][1,4]oxazine-8-carboxamide], the IC50 in the assay with K562 cells is not above 5 nM; against Ba/F3 BCR-ABL1 WT, not above 5 nM; at Ba/F3 BCR-ABL1 T315I, not above 5 nM; in the assay with Ba/F3 parental cells it was more than 1000 nM.

`COc1cnc(-n2cc3c(n2)-c2cc(-c4cc(C(=O)Nc5ccc(OC(F)(F)Cl)cc5)cc5nc6n(c45)[C@H](C)COC6)cnc2C3)nc1` [T-77, (R)-N-(4-(chlorodifluoromethoxy)phenyl)-6-(2-(5-methoxypyrimidin-2-yl)-2,4-dihydropyrazolo[3',4':3,4]cyclopenta[1,2-b]pyridin-7-yl)-4-methyl-3,4-dihydro-1H-benzo[4,5]imidazo[2,1-c][1,4]oxazine-8-carboxamide]: the IC50 with K562 cells is not above 5 nM; against Ba/F3 BCR-ABL1 WT, not above 5 nM; against Ba/F3 BCR-ABL1 T315I, not above 5 nM; in the assay with Ba/F3 parental cells it was more than 1000 nM.

Take `C[C@@H]1COCc2nc3cc(C(=O)Nc4ccc(OC(F)(F)Cl)cc4)cc(-c4cnc5c(c4)-c4nn(-c6ncc(C(F)(F)F)cn6)cc4C5)c3n21` [T-79, (R)-N-(4-(chlorodifluoromethoxy)phenyl)-4-methyl-6-(2-(5-(trifluoromethyl)pyrimidin-2-yl)-2,4-dihydropyrazolo[3',4':3,4]cyclopenta[1,2-b]pyridin-7-yl)-3,4-dihydro-1H-benzo[4,5]imidazo[2,1-c][1,4]oxazine-8-carboxamide]: the IC50 with K562 cells is not above 5 nM; against Ba/F3 BCR-ABL1 WT it was not above 5 nM; at Ba/F3 BCR-ABL1 T315I, not above 5 nM; in the assay on Ba/F3 parental cells, more than 1000 nM.

As for `C[C@@H]1COCc2nc3cc(C(=O)Nc4ccc(OC(F)(F)Cl)cc4)cc(-c4cnc5c(c4)-c4nn(-c6ncc(-c7ccccc7)cn6)cc4C5)c3n21` [T-80, (R)-N-(4-(chlorodifluoromethoxy)phenyl)-4-methyl-6-(2-(5-phenylpyrimidin-2-yl)-2,4-dihydropyrazolo[3',4':3,4]cyclopenta[1,2-b]pyridin-7-yl)-3,4-dihydro-1H-benzo[4,5]imidazo[2,1-c][1,4]oxazine-8-carboxamide], the IC50 is not above 5 nM in the assay with K562 cells, not above 5 nM on Ba/F3 BCR-ABL1 WT, not above 5 nM at Ba/F3 BCR-ABL1 T315I and more than 1000 nM in the assay with Ba/F3 parental cells.

The values are drawn from patent EP4768484A1, “HETEROCYCLIC FUSED RING COMPOUND, AND COMPOSITION AND USE THEREOF” (Shenzhen TargetRx, Inc., priority 2023, dated 2025).
